Measured values taken from patent publication US20120197004A1, “NOVEL ANTI-MICROBIAL PEPTIDOMIMETIC COMPOUNDS AND METHODS TO CALCULATE ANTI-MICROBIAL ACTIVITY” (priority 2006, published 2012).
Converted amounts (≈) assume the structure as drawn. Like-named read-outs stand apart in the source and are kept apart here. Where a SMILES comes first, the peptide text is derived from it. [ ]: non-standard residue; d: D form. ξ: configuration not given here. Phe(4-F) = N[C@@H](Cc1ccc(F)cc1)C(=O)O; ξTic = O=C(O)C1Cc2ccccc2CN1; ξOic = O=C(O)C1CC2CCCCC2N1; Ahx = NCCCCCC(=O)O; GABA = NCCCC(=O)O

Key:
Plague CO92 = details: in vitro MIC
[1] = test system: Staphylococcus aureus Methicillin/Gentamicin/Tetracycline Resistant (ATCC 33592); details: for MIC Staphylococcus aureus ME/GM/TC resistant: Minimal Inhibitory Concentration, tested at 100-0.1 in 1% DMSO; for Minimum Inhibitory Concentration Staphylococcus aureus ME/GM/TC resistant: in vitro MIC, tested at 100, 30, 10, 3, 1, 0.3 and 0.1 μM in 1% DMSO
F. tularensis SCHU-S4 = details: in vitro MIC
in vitro [2] = details: mouse, microsomes, pH 7.4
[3] = test system: Mycobacterium ranae (ATCC 110); details: ATCC 110
B. melitensis 16M = details: in vitro MIC
[4] = test system: Bacillus subtillis (ATCC 43223); details: ATCC 43223
in vitro [5] = details: dog, microsomes, pH 7.4
Bacillus anthracis Ames = details: in vitro MIC
red blood cells = details: 100 μM
in vitro [6] = details: monkey, microsomes, pH 7.4
in vitro [7] = details: rat, microsomes, pH 7.4
in vitro [8] = details: human, microsomes, pH 7.4
[9] = test system: Salmonella typhimurium (ATCC 13311); details: ATCC 13311

Compound	MIC Staphylococcus aureus ME/GM/TC resistant [1] [µM]	Minimum Inhibitory Concentration Staphylococcus aureus ME/GM/TC resistant [1] [µM]	Minimum Inhibitory Concentration F. tularensis SCHU-S4 (F. tularensis SCHU-S4) [µg/mL]	remaining at 0.5 h, 1 μM (in vitro [2]) [%]	remaining at 1 h, 1 μM (in vitro [2]) [%]	MIC Mycobacterium ranae [3] [µM]	Minimum Inhibitory Concentration Mycobacterium ranae [3] [µM]	Minimum Inhibitory Concentration B. melitensis 16M (B. melitensis 16M) [µg/mL]	MIC Bacillus Subtillis [4] [µM]	remaining at 0.5 h, 1 μM (in vitro [5]) [%]	remaining at 1 h, 1 μM (in vitro [5]) [%]	remaining at 0.25 h, 1 μM (in vitro [6]) [%]	remaining at 0.5 h, 1 μM (in vitro [6]) [%]	remaining at 1 h, 1 μM (in vitro [6]) [%]	remaining at 0.25 h, 1 μM (in vitro [7]) [%]	remaining at 0.5 h, 1 μM (in vitro [7]) [%]	remaining at 0.25 h, 1 μM (in vitro [8]) [%]	remaining at 0.25 h, 1 μM (in vitro [2]) [%]	remaining at 1 h, 1 μM (in vitro [7]) [%]	other results
CC(C)C[C@H](NC(=O)[C@@H](N)CCCCN)C(=O)N1Cc2ccccc2CC1C(=O)N1C(C(=O)N[C@@H](CCCCN)C(=O)N2Cc3ccccc3CC2C(=O)N2C(C(=O)N[C@@H](Cc3ccccc3)C(=O)N3Cc4ccccc4CC3C(=O)N3C(C(=O)N[C@@H](CCCCN)C(=O)N4Cc5ccccc5CC4C(=O)N4C(C(=O)N[C@@H](Cc5ccccc5)C(=O)N5Cc6ccccc6CC5C(=O)N5C(C(=O)N[C@@H](CCCCN)C(=O)N6Cc7ccccc7CC6C(=O)N6C(C(=O)N[C@@H](CCCCN)C(=O)N[C@@H](CCCNC(=N)N)C(N)=O)CC7CCCCC76)CC6CCCCC65)CC5CCCCC54)CC4CCCCC43)CC3CCCCC32)CC2CCCCC21 (stereo partly drawn) [FKAB-1F, NH2-KL-Tic-Oic-K-Tic-Oic-F-Tic-Oic-K-Tic-Oic-F-Tic-Oic-K-Tic-Oic-KR-CONH2] (H-KL[ξTic][ξOic]K[ξTic][ξOic]F[ξTic][ξOic]K[ξTic][ξOic]F[ξTic][ξOic]K[ξTic][ξOic]KR-NH2)	10.00 (≈ 30.8 µg/mL)	10	>500	45	22	30.00 (≈ 92.5 µg/mL)	30	>500	1.00 (≈ 3.08 µg/mL)	27	8	28	29	9	113	120	99			Minimum Inhibitory Concentration Plague CO92 (Plague CO92; listed as 24): >500 µg/mL; Minimum Inhibitory Concentration Bacillus anthracis Ames (Bacillus anthracis Ames; listed as 24): 0.98 µg/mL; % hemolysis 100/25 μM (first value) (red blood cells): 63%
CC(=O)NCC(=O)N[C@@H](Cc1ccccc1)C(=O)N1Cc2ccccc2CC1C(=O)N1C(C(=O)NCC(=O)N[C@@H](CCCCN)C(=O)N2Cc3ccccc3CC2C(=O)N2C(C(=O)NCC(=O)N[C@@H](Cc3ccccc3)C(=O)N3Cc4ccccc4CC3C(=O)N3C(C(=O)NCC(=O)N[C@@H](CCCCN)C(=O)N4Cc5ccccc5CC4C(=O)NCCCCCC(=O)N[C@@H](CCCCN)C(=O)N[C@@H](CCCCN)C(=O)N[C@@H](CCCCN)C(=O)N[C@@H](CCCCN)C(N)=O)CC4CCCCC43)CC3CCCCC32)CC2CCCCC21 (stereo partly drawn) [FKAB-1G-Ahx, Ac-GF-Tic-Oic-GK-Tic-Oic-GF-Tic-Oic-GK-Tic-Ahx-KKKK-CONH2] (Ac-GF[ξTic][ξOic]GK[ξTic][ξOic]GF[ξTic][ξOic]GK[ξTic][Ahx]KKKK-NH2)		30	250	98	113		10	>500		79	84				120	106	112	97		Minimum Inhibitory Concentration Plague CO92 (Plague CO92; listed as 54): 15.6 µg/mL; Minimum Inhibitory Concentration Bacillus anthracis Ames (Bacillus anthracis Ames; listed as 54): 1.95 µg/mL
CC(=O)NCC(=O)N[C@@H](Cc1ccccc1)C(=O)N1Cc2ccccc2CC1C(=O)N1C(C(=O)NCC(=O)N[C@@H](CCCCN)C(=O)N2Cc3ccccc3CC2C(=O)N2C(C(=O)NCC(=O)N[C@@H](Cc3ccccc3)C(=O)N3Cc4ccccc4CC3C(=O)N3C(C(=O)NCC(=O)N[C@@H](CCCCN)C(=O)N4Cc5ccccc5CC4C(=O)NCCCC(=O)N[C@@H](CCCCN)C(=O)N[C@@H](CCCCN)C(=O)N[C@@H](CCCCN)C(=O)N[C@@H](CCCCN)C(N)=O)CC4CCCCC43)CC3CCCCC32)CC2CCCCC21 (stereo partly drawn) [FKAB-1G-Gaba, Ac-GF-Tic-Oic-GK-Tic-Oic-GF-Tic-Oic-GK-Tic-Gaba-KKKK-CONH2] (Ac-GF[ξTic][ξOic]GK[ξTic][ξOic]GF[ξTic][ξOic]GK[ξTic][GABA]KKKK-NH2)		10	>500	71	66		3	>500		80	86	117	120		113	72	118	88	104	Minimum Inhibitory Concentration Plague CO92 (Plague CO92; listed as 53): 31.25 µg/mL; Minimum Inhibitory Concentration Bacillus anthracis Ames (Bacillus anthracis Ames; listed as 53): 0.98 µg/mL
CC(=O)NCC(=O)N[C@@H](Cc1ccccc1)C(=O)N1Cc2ccccc2CC1C(=O)N1C(C(=O)NCC(=O)N[C@@H](Cc2c[nH]c3ccccc23)C(=O)N2Cc3ccccc3CC2C(=O)N2C(C(=O)NCC(=O)N[C@@H](Cc3ccccc3)C(=O)N3Cc4ccccc4CC3C(=O)N3C(C(=O)NCC(=O)N[C@@H](Cc4c[nH]c5ccccc45)C(=O)N4Cc5ccccc5CC4C(=O)N[C@@H](CCCCN)C(=O)N[C@@H](CCCCN)C(=O)N[C@@H](CCCCN)C(=O)N[C@@H](CCCCN)C(N)=O)CC4CCCCC43)CC3CCCCC32)CC2CCCCC21 (stereo partly drawn) [FKAB-1G-Trp, Ac-GF-Tic-Oic-GW-Tic-Oic-GF-Tic-Oic-GW-Tic-KKKK-CONH2] (Ac-GF[ξTic][ξOic]GW[ξTic][ξOic]GF[ξTic][ξOic]GW[ξTic]KKKK-NH2)		30	>500	81	106		100	>500		116		0	0	0		84	112	54	0	Minimum Inhibitory Concentration Plague CO92 (Plague CO92; listed as 57): >500 µg/mL; Minimum Inhibitory Concentration Bacillus anthracis Ames (Bacillus anthracis Ames; listed as 57): 0.98 µg/mL
CC(=O)NCC(=O)N[C@@H](Cc1ccc(F)cc1)C(=O)N1Cc2ccccc2CC1C(=O)N1C(C(=O)NCC(=O)N[C@@H](CCCCN)C(=O)N2Cc3ccccc3CC2C(=O)N2C(C(=O)NCC(=O)N[C@@H](Cc3ccc(F)cc3)C(=O)N3Cc4ccccc4CC3C(=O)N3C(C(=O)NCC(=O)N[C@@H](CCCCN)C(=O)N4Cc5ccccc5CC4C(=O)N[C@@H](CCCCN)C(=O)N[C@@H](CCCCN)C(=O)N[C@@H](CCCCN)C(=O)N[C@@H](CCCCN)C(N)=O)CC4CCCCC43)CC3CCCCC32)CC2CCCCC21 (stereo partly drawn) [FKAB-1Go, Ac-G-Fpa-Tic-Oic-GK-Tic-Oic-G-Fpa-Tic-Oic-GK-Tic-KKKK-CONH2] (Ac-G[Phe(4-F)][ξTic][ξOic]GK[ξTic][ξOic]G[Phe(4-F)][ξTic][ξOic]GK[ξTic]KKKK-NH2)	10.00 (≈ 24.8 µg/mL)	10	250	26	22	3.00 (≈ 7.43 µg/mL)	3	>500	0.30 (≈ 0.743 µg/mL)	54	59	57	65	94	74	57	103	81	75	Minimum Inhibitory Concentration Plague CO92 (Plague CO92; listed as 44): 31.25 µg/mL; MIC Salmonella typhimurium [9]: 30 µM (≈ 74.3 µg/mL); Minimum Inhibitory Concentration Salmonella typhimurium [9]: 30 µM; Minimum Inhibitory Concentration Bacillus subtillis [4]: 0.3 µM; Minimum Inhibitory Concentration Bacillus anthracis Ames (Bacillus anthracis Ames; listed as 44): 0.98 µg/mL
